Assay results: publication PMC5764437, “Discovery of novel, orally bioavailable, antileishmanial compounds using phenotypic screening” (PLoS Neglected Tropical Diseases, 2017)
“Also recorded” adds a separate entry of the source. Read-outs that look alike come from different tables or passages of the source.

Legend:
[1] = Parallel Artificial Membrane Permeability Assay (PAMPA); conditions: pH 7.4
Method: Parallel Artificial Membrane Permeability Assay (PAMPA) was conducted by Biomek FX lab automation workstation (Beckman Coulter, Inc.) and PAMPA evolution 96 command software (pION Inc.). A 3 µL aliquot of […] test compound stock in DMSO was mixed with 597 µL of isotonic citrate phosphate buffered saline to make diluted test compound. Diluted test compound (150 µL) was transferred to a UV plate (pION Inc.) and the UV spectrum was read as the reference plate. The membrane on a pre-loaded PAMPA sandwich (pION Inc.) was painted with 4 µL GIT lipid (pION Inc.). The acceptor chamber was then filled with 200 µL acceptor solution buffer, (pION Inc.), and the donor chamber was filled with 180 µL diluted test compound. The PAMPA sandwich was assembled, placed on the Gut-Box and stirred for 30 min. The Aqueous Boundary Layer was set to 40 µm for stirring. The UV spectrum (250-500 nm) of the donor and the acceptor solutions were recorded. The permeability coefficient was calculated using PAMPA Evolution 96 Command software (pION Inc.) based on the AUC of the reference plate, the donor plate and the acceptor plate. All compounds were tested in triplicate.

[2] = Single oral dose pharmacokinetic study in mice; format: in vivo, mouse; conditions: single oral gavage; for half-life: read-out: t½ (converted)
Method: Female BALB/c mice of 17-21 grams were purchased from Charles River Laboratories (Wilmington, MA). Food and water were provided ad libitum. […] All animal received 100 ± 20 µL of compound solution in formulation (10/10/40/40: […] Animals were euthanized via cardiac puncture at 48 h post injection. Blood samples were treated with 10 µL of EDTA sodium solution to prevent coagulation. […] The supernatant (40 µL) was collected and mixed with 2 parts of Milli-Q water and centrifuged again at 4000 rpm for 20 min at 4 °C. Plasma concentration was determined with a partially validated LC/MS-MS assay with multiple reaction monitoring detection (AB Sciex, Framingham, MA). The summary of the LC/MS/MS method is provided below. The assay lower limit of quantification (LLOQ) was 4.57 nM in plasma. […] The Area Under the Concentration-Time Curve (AUC) was calculated with the linear trapezoidal, linear interpolation rule using mean concentrations and nominal times. The standard error of the AUC to the last time point (AUClast) was generated using the sparse sampling option. The terminal elimination rate (Lambda_z) and half-life (HL_Lambda_z) was determined using the default “Best Fit” method. The predicted AUC from the last time point to infinity (AUCINF_pred) was calculated as AUClast plus Clast(pred)/Lambda_z. Clearance (CL or CL/F) was calculated as Dose/AUCINF_pred. If ≥2/3rds of the observed concentrations were below LLOQ, the mean concentration was treated missing. The calibration curve was obtained as follows. The calibration was done using the same biological matrices to ensure similar recovery. […] All concentrations in the calibration range must be no more than 20% deviation. If there were any points with more than 20% deviation on the high or low end, the calibration range would be truncated. If an outlier occurred in the middle of the curve, the whole curve would be re-done. The signal: noise of the compound peak at the H/LLOQ must be greater than 5. […] The samples were tested on the same or the second day.

L. mexicana = experiment: Efficacy in murine model of cutaneous leishmaniasis (footpad lesion size); format: in vivo; conditions: BALB/c mice infected with L. mexicana, measured weeks 4–12
Method: Female BALB/c mice (~20 g) were injected in one hind footpad with 1 x 10^6 stationary phase promastigotes suspended in 25 μl of phosphate buffered saline (PBS). Four weeks after infection, when a small cutaneous lesion was visible in the injected footpad, cohorts of five mice were treated with either compound or vehicle alone (90 μl), delivered daily for 10 consecutive days by oral gavage using a 20-gauge x 30 mm disposable plastic feeding needle. Vehicle consisted of 10/10/40/39 mixture of ethanol/(PG)/PEG400/PBS plus 1% (weight/volume) 2HβCD (PG is propylene glycol, PEG is polyethylene glycol, 2HβCD is 2-hydroxy-β-cyclodextran). The daily dose for each compound was: compound 4, 25 mg/kg; compound 5, 30 mg/kg; miltefosine, 20 mg/kg. The width of the footpad (top to bottom) was measured with calipers before injection of parasites (day 0) and weekly from weeks 4–12. The width of the uninfected contralateral footpad was also measured each week, and its width was subtracted from that of the infected footpad to determine lesion size.

[3] = Liver microsomal stability, human; conditions: both, liver microsomes, pH 7.4
Method: One part of 10 mM DMSO compound stock was mixed with 4 parts of acetonitrile to make 2 mM diluted compound stock in DMSO and acetonitrile. 29.1 µL diluted compound stock was added to 2.3 mL liver microsomal solution and vortexed to make microsomal solution with compound. […] For the 0 h time point, 450 µL pre-cooled (4 °C) internal standard (10 µM warfarin in methanol) was added to the first three columns before the reaction was initiated. 1.25 ml of microsome assay solution A (Fisher Scientific, #NC9255727) was combined with 0.25 ml of solution B (Fisher Scientific, #NC9016235) in 3.5 ml of potassium phosphate buffer (0.1 M, pH 7.4). 45 µL of this A+B solution was added to each well of the 96-well storage plate (reaction plate). Liquid in the first 3 columns was moved to another storage plate (quenched plate). The reaction plate was then sealed, incubated at 37 °C, and shaken at a speed of 60 rpm. Time points (0.5 h, 1 h, 2 h) were taken. At each time point, 450 µL pre-cooled internal standard was added to 3 rows in the reaction plate, and the liquid was then transferred to the quenched plate. […] 200 µL supernatant was transferred to a 96-well plate and analyzed by ultra-performance liquid chromatography-mass spectrometry (UPLC-MS) (Waters Inc.). The compounds and internal standard were detected by selected ion recording (SIR).

[4] = Dose-ranging tolerability / 10-day toxicity study in mice; format: in vivo, mouse
Method: Drug doses were chosen based on pilot toxicology and pharmacokinetic studies. Female BALB/C mice (compound 4) or C57BL6 (compound 5) of 17–21 grams were purchased from Charles River Laboratories (Wilmington, MA). Food and water were provided ad libitum. Two mice were used as control and another 5 mice were dosed daily via oral gavage (25 mg/kg with compound 4 and 50 mg/kg with compound 5). Every day blood was collected by retro-orbital bleed from one animal from the treatment group for pharmacokinetics. […] Each mouse received two blood collections and glucose measurements over the 10-day course of treatment.

[5] = female, BALB/c, mouse, plasma, po, 25 mg/kg
[6] = female, BALB/c, mouse, plasma, po, 50 mg/kg
[7] = 50 mg/kg, 10-day toxicity study

COc1ccc(-c2c(C(F)(F)F)oc3c(CN4CCN(C)CC4)c(O)ccc3c2=O)cc1OC [Compound 4]
Papp at 30 min, 0.05 µM [1]: 375 ×10⁻⁶ cm/s | Cmax [2, 5]: 3.2 µM | Tmax [2, 5]: ≤ 1 h | half-life ([2]; female, BALB/c, mouse, plasma, po, 25 mg/kg, 25 mg/kg, plasma): 3 h | AUC ([2]; female, BALB/c, mouse, 25 mg/kg, plasma): 16.7 µM·h | CL ([2]; 25 mg/kg): 52.2 mL/min/kg | Vd ([2]; 25 mg/kg): 14.2 L/kg | t½ ([2]; 25 mg/kg, plasma): 3.2 h | Cutaneous lesion size (footpad width) (L. mexicana; 25 mg/kg daily oral gavage for 10 days from week 4): controlled lesion size at dimensions similar to that at the time of compound dosing (4 weeks) until week 9 | half-life at 20 μM [3]: > 4 h | Tolerability of daily oral administration ([4]; daily oral, 25 mg/kg): well-tolerated in all study animals; also recorded: No weight loss or other toxicity was observed | Seizures ([4]; oral gavage, 25 mg/kg): no seizures were seen | Glucose level ([4]; oral gavage, 25 mg/kg, at Cmax and Cmin): remained within normal limits | Seizures / seizure-like behavior ([4]; oral gavage, 50 mg/kg): half of the animals exhibited seizure-like behavior | Glucose level in plasma ([4]; oral gavage, 50 mg/kg, untreated mice 185–251 mg/dl): 23 to 40 mg/dL

Cc1ccc(-c2nc3ccccc3s2)cc1NC(=O)c1cc([N+](=O)[O-])c(N2CCN(C)CC2)cc1Cl [Compound 5]
Papp at 30 min, 0.05 µM [1]: 237 ×10⁻⁶ cm/s | Cmax [2, 6]: 6.49 µM | Tmax [2, 6]: 4 h | half-life ([2]; female, BALB/c, mouse, plasma, po, 50 mg/kg, 50 mg/kg, plasma): 7.1 h | AUC ([2]; female, BALB/c, mouse, 50 mg/kg, plasma): 83.2 µM·h | CL ([2]; 50 mg/kg): 19.2 mL/min/kg | Vd ([2]; 50 mg/kg): 11.8 L/kg | Cmax ([2]; 50 mg/kg, plasma): 6.5 µM | Cutaneous lesion size (footpad width) (L. mexicana; 30 mg/kg daily oral gavage for 10 days from week 4): controlled lesion size at dimensions similar to that at the time of compound dosing (4 weeks) until week 9 | half-life at 20 μM [3]: > 4 h | Food intake [4, 7]: reduced food intake | Weight loss [4, 7]: more than 10%
